For 22 molecules, Ki results are on record in US7671048B2, “Substituted imidazo [1,5-a][1,2,4]triazolo[1,5-d][1,4]benzodiazepine derivatives” (priority 2004, dated 2010).

For test [1], the target named is T1, GABA A receptor α3β3γ2 (Homo sapiens, UniProt P18507+P34903).
T1 construct: expressed in transfected cells; host or cells: HEK293 (transiently transfected), membranes
In words: [3H]flumazenil competition binding, human α3β3γ2. The protocol: (§1) The affinity of compounds at GABA A receptor subtypes was measured by competition for [^3H]flumazenil (85 Ci/mmol; Roche) binding to HEK293 cells expressing rat (stably transfected) or human (transiently transfected) receptors of composition α1β3γ2, α2β3γ2, α3β3γ2 and α5β3γ2.
(§2) Cell pellets were suspended in Krebs-tris buffer (4.8 mM KCl, 1.2 mM CaCl2, 1.2 mM MgCl2, 120 mM NaCl, 15 mM Tris; pH 7.5; binding assay buffer), homogenized by polytron for ca. 20 sec on ice and centrifuged for 60 min at 4° C. (50000 g; Sorvall, rotor: SM24=20000 rpm). The cell pellets were resuspended in Krebs-tris buffer and homogenized by polytron for ca. 15 sec on ice. Protein was measured (Bradford method, Bio-Rad) and aliquots of 1 mL were prepared and stored at −80° C.
(§3) Radioligand binding assays were carried out in a volume of 200 μL (96-well plates) which contained 100 μL of cell membranes, [^3H]flumazenil at a concentration of 1 nM for α1, α2, α3 subunits and 0.5 nM for α5 subunits and the test compound in the range of 10^−10−3×10^−6 M. Nonspecific binding was defined by 10^−5 M diazepam and typically represented less than 5% of the total binding. Assays were incubated to equilibrium for 1 hour at 4° C. and harvested onto GF/C uni-filters (Packard) by filtration using a Packard harvester and washing with ice-cold-wash buffer (50 mM Tris; pH 7.5). After drying, filter-retained radioactivity was detected by liquid scintillation counting. Ki values were calculated using Excel-Fit (Microsoft) and are the means of two determinations.

For test [2], the target named is T2, GABA A receptor α1β3γ2 (Homo sapiens, UniProt P14867+P18507).
T2 construct: expressed in transfected cells; host or cells: HEK293 (transiently transfected), membranes
As to the kind of experiment: [3H]flumazenil competition binding, human α1β3γ2. As to the method:
as §1, §2, §3

The target of test [3] is T3, GABA A receptor α5β3γ2 (Homo sapiens, UniProt P18507+P31644).
T3 construct: expressed in transfected cells; host or cells: HEK293 (transiently transfected), membranes
In words: [3H]flumazenil competition binding, human α5β3γ2. As to the method:
as §1, §2, §3

The target in test [4] is T4, GABA A receptor α2β3γ2 (Homo sapiens, UniProt P18507+P47869).
T4 construct: expressed in transfected cells; host or cells: HEK293 (transiently transfected), membranes
In words: [3H]flumazenil competition binding, human α2β3γ2. As to the method:
as §1, §2, §3

Setting [5] is: HEK293 cell membranes, human (transiently transfected) receptor, 1 nM [3H]flumazenil, mean of two determinations, read-out: Ki[nM] hα3.
Setting [6] is: HEK293 cell membranes, human (transiently transfected) receptor, 1 nM [3H]flumazenil, mean of two determinations, read-out: Ki[nM] hα1.
[7] abbreviates: HEK293 cell membranes, human (transiently transfected) receptor, 0.5 nM [3H]flumazenil, mean of two determinations, read-out: Ki[nM] hα5.
Where [8] appears, read: HEK293 cell membranes, human (transiently transfected) receptor, 1 nM [3H]flumazenil, mean of two determinations, read-out: Ki[nM] hα2.

Broadly, the Ki is the dissociation constant of the complex between target and ligand, obtained from inhibition or displacement.

Like-named read-outs stand apart in the source and are kept apart here.

For `CC(=O)c1ncn2c1Cn1ncnc1-c1cc(F)ccc1-2` [Example 1, 1-[3-Fluoro-9H-imidazo[1,5-a][1,2,4]triazolo[1,5-d][1,4]benzodiazepin-10-yl]-ethanone], the Ki in test [1] (setting [5]) turned out to be 233 nM; in test [2] (setting [6]), 314 nM; in test [3] (setting [7]) it was 104 nM; in test [4] (setting [8]), 183 nM.
As to `CCC(=O)c1ncn2c1Cn1ncnc1-c1cc(F)ccc1-2` [Example 2, 1-[3-Fluoro-9H-imidazo[1,5-a][1,2,4]triazolo[1,5-d][1,4]benzodiazepin-10-yl]-propan-1-one], the Ki amounted to 3.9 nM in test [1], 6.2 nM in test [2], 2.2 nM in test [3] and 3.4 nM in test [4].
Turning to `O=C(c1ncn2c1Cn1ncnc1-c1cc(F)ccc1-2)C1CC1` [Example 3, Cyclopropyl-[3-fluoro-9H-imidazo[1,5-a][1,2,4]triazolo[1,5-d][1,4]benzodiazepin-10-yl]-methanone], the inhibition constant (Ki) was determined as 1.8 nM in test [1], 2.8 nM in test [2], 1.2 nM in test [3] and 2 nM in test [4].
Take `O=C(CCCc1ccccc1)c1ncn2c1Cn1ncnc1-c1cc(F)ccc1-2` [Example 4, 1-[3-Fluoro-9H-imidazo[1,5-a][1,2,4]triazolo[1,5-d][1,4]benzodiazepin-10-yl]-4-phenyl-butan-1-one]: the inhibition constant (Ki) amounted to 55.9 nM in test [1], 45.6 nM in test [2], 16.4 nM in test [3] and 60 nM in test [4].
As for `CCC(=O)c1ncn2c1Cn1ncnc1-c1cc(Cl)ccc1-2` [Example 5, 1-[3-Chloro-9H-imidazo[1,5-a][1,2,4]triazolo[1,5-d][1,4]benzodiazepin-10-yl]-propan-1-one], the Ki amounted to 22.4 nM in test [1], 32.2 nM in test [2], 2.7 nM in test [3] and 28.1 nM in test [4].
Regarding `O=C(c1ncn2c1Cn1ncnc1-c1cc(Cl)ccc1-2)C1CC1` [Example 6, Cyclopropyl-[3-chloro-9H-imidazo[1,5-a][1,2,4]triazolo[1,5-d][1,4]benzodiazepin-10-yl]-methanone], the Ki in test [1] was found to be 19.9 nM; in test [2] it was 14.5 nM; in test [3] it was 2.2 nM; in test [4], 18 nM.
In the same order, the values of `O=C1CCCN1C(=O)c1ncn2c1Cn1ncnc1-c1cc(F)ccc1-2` [Example 9, 1-[[3-Fluoro-9H-imidazo[1,5-a][1,2,4]triazolo[1,5-d][1,4]benzodiazepin-10-yl]carbonyl]-2-pyrrolidinone] are 9 nM, 12.3 nM, 5.8 nM and 12.3 nM.
For `C#CCNC(=O)c1ncn2c1Cn1ncnc1-c1cc(F)ccc1-2` [Example 10, 3-Fluoro-9H-imidazo[1,5-a][1,2,4]triazolo[1,5-d][1,4]benzodiazepine-10-carboxylic acid prop-2-ynylamide], the inhibition constant Ki in test [1] worked out at 64.9 nM; in test [2] (setting [6]), 242 nM; in test [3] it was 67.8 nM; in test [4] it was 67.8 nM.
Regarding `CCOC(=O)c1ncn2c1Cn1ncnc1-c1cc(C3CC3)ccc1-2` [Example 12, Ethyl 3-cyclopropyl-9H-imidazo[1,5-a][1,2,4]triazolo[1,5-d][1,4]benzodiazepine-10-carboxylate], the Ki in test [1] worked out at 0.7 nM; in test [2], 1.7 nM; in test [3], 0.6 nM; in test [4], 0.9 nM.
For `CCOC(=O)c1ncn2c1Cn1ncnc1-c1cc(OC)ccc1-2` [Example 14, Ethyl 3-methoxy-9H-imidazo[1,5-a][1,2,4]triazolo[1,5-d][1,4]benzodiazepine-10-carboxylate], the Ki is 0.9 nM in test [1], 0.9 nM in test [2], 0.2 nM in test [3] and 1.7 nM in test [4].
In the case of `CCOC(=O)c1ncn2c1Cn1ncnc1-c1cc(OC(F)(F)F)ccc1-2` [Example 19, Ethyl 3-trifluoromethoxy-9H-imidazo[1,5-a][1,2,4]triazolo[1,5-d][1,4]benzodiazepine-10-carboxylate], the inhibitory constant (Ki) in test [1] came to 1.4 nM; in test [2] it was 3.4 nM; in test [3] it was 0.7 nM; in test [4], 1.1 nM.
With `O=Cc1ncn2c1Cn1ncnc1-c1cc(Cl)ccc1-2` [Example 21, 3-Chloro-9H-imidazo[1,5-a][1,2,4]triazolo[1,5-d][1,4]benzodiazepine-10-carbaldehyd], the Ki was 71.9 nM in test [1], 223 nM in test [2] (setting [6]), 5.9 nM in test [3] and 134 nM in test [4] (setting [8]).
Take `CCOC(=O)c1ncn2c1Cn1ncnc1-c1cc(Br)ccc1-2` [Example 23, Ethyl 3-bromo-9H-imidazo[1,5-a][1,2,4]triazolo[1,5-d][1,4]benzodiazepine-10-carboxylate]: the Ki amounted to 1.8 nM in test [1] (setting [5]), 1.9 nM in test [2] (setting [6]), 0.3 nM in test [3] (setting [7]) and 3.8 nM in test [4] (setting [8]).
With `C#Cc1ccc2c(c1)-c1ncnn1Cc1c(C(=O)OCC)ncn1-2` [Example 24, Ethyl 3-ethynyl-9H-imidazo[1,5-a][1,2,4]triazolo[1,5-d][1,4]benzodiazepine-10-carboxylate], the inhibition constant Ki is 6.4 nM in test [1], 10.6 nM in test [2], 0.6 nM in test [3] and 4.4 nM in test [4].
Take `COCCOC(=O)c1ncn2c1Cn1ncnc1-c1cc(Br)ccc1-2` [Example 25, 2-Methoxy-ethyl 3-bromo-9H-imidazo[1,5-a][1,2,4]triazolo[1,5-d][1,4]benzodiazepine-10-carboxylate]: the Ki turned out to be 18.8 nM in test [1], 20.3 nM in test [2], 1.4 nM in test [3] and 28.5 nM in test [4].
For `CCCC(=O)c1ncn2c1Cn1ncnc1-c1cc(Br)ccc1-2` [Example 26, 1-[3-Bromo-9H-imidazo[1,5-a][1,2,4]triazolo[1,5-d][1,4]benzodiazepin-10-yl]-butan-1-one], the inhibition constant (Ki) was 72.7 nM in test [1], 85.1 nM in test [2], 3.5 nM in test [3] and 106 nM in test [4] (setting [8]).
Regarding `CC(C)CC(=O)c1ncn2c1Cn1ncnc1-c1cc(Br)ccc1-2` [Example 31, 1-[3-Bromo-9H-imidazo[1,5-a][1,2,4]triazolo[1,5-d][1,4]benzodiazepin-10-yl]-3-methyl-butan-1-one], the inhibitory constant (Ki) in test [1] (setting [5]) stood at 173 nM; in test [2] (setting [6]), 243 nM; in test [3], 8.3 nM; in test [4] (setting [8]), 261 nM.
In the same order, the values of `O=C(CCc1ccccc1)c1ncn2c1Cn1ncnc1-c1cc(Br)ccc1-2` [Example 33, 1-[3-Bromo-9H-imidazo[1,5-a][1,2,4]triazolo[1,5-d][1,4]benzodiazepin-10-yl]-3-phenyl-propan-1-one] are 133 nM, 109 nM, 3.8 nM and 160 nM.
For `CCOC(=O)c1ncn2c1Cn1ncnc1-c1cc(NC(=O)C(F)(F)F)ccc1-2` [Example 38, Ethyl 3-(2,2,2-trifluoro-acetylamino)-9H-imidazo[1,5-a][1,2,4]triazolo[1,5-d][1,4]benzodiazepine-10-carboxylate], the Ki came out at 5.7 nM in test [1], 3.1 nM in test [2], 1.2 nM in test [3] and 7.3 nM in test [4].
Turning to `CCOC(=O)c1ncn2c1Cn1ncnc1-c1cc(NC(=O)C(C)C)ccc1-2` [Example 39, Ethyl 3-isobutyrylamino-9H-imidazo[1,5-a][1,2,4]triazolo[1,5-d][1,4]benzodiazepine-10-carboxylate], the inhibition constant (Ki) in test [1] was found to be 39.7 nM; in test [2] it was 11.4 nM; in test [3], 6.4 nM; in test [4] it was 73.5 nM.
In the same order, the values of `CCOC(=O)c1ncn2c1Cn1ncnc1-c1cc(NC(=O)CCOC)ccc1-2` [Example 41, Ethyl 3-(3-methoxy-propionylamino)-9H-imidazo[1,5-a][1,2,4]triazolo[1,5-d][1,4]benzodiazepine-10-carboxylate] are 17.7 nM, 9.7 nM, 5.1 nM and 24.8 nM.
In the same order, the values of `CCOC(=O)c1ncn2c1Cn1ncnc1-c1cc(NC=O)ccc1-2` [Example 42, Ethyl 3-formylamino-9H-imidazo[1,5-a][1,2,4]triazolo[1,5-d][1,4]benzodiazepine-10-carboxylate] are 4.9 nM, 6.5 nM, 2 nM and 8.6 nM.
